Data taken from PubChem BioAssay AID270 (DTP/NCI, 2004).
Values joined by “and” are separate entries in the source; they are usually repeats but may differ in a detail not shown here. Equal values may be shown once. Inconclusive results are not listed.

Test system: BDF1 mice, s.c. Lewis lung carcinoma, T/C %
Test: NCI In Vivo Anticancer Drug Screen. Data for tumor model Lewis Lung Carcinoma (subcutaneous) in B6D2F1 (BDF1) mice
Outline: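 The value reflects a ratio in which the treated cohort's survival time or tumour size is compared against mice receiving only vehicle.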

O=NN(CCCl)C(=O)NC1CSCSC1
T/C (endpoint: median survival time, dose: 1.56 mg/kg/injection, schedule: Q01DX009 (ip), vehicle: saline with Tween-80, higher = longer survival): 106 % of control
T/C (endpoint: median survival time, dose: 3.12 mg/kg/injection, schedule: Q01DX009 (ip), vehicle: saline with Tween-80, higher = longer survival): 104 % of control
T/C (endpoint: median survival time, dose: 4.7 mg/kg/injection, schedule: Q04DX004 (ip), vehicle: saline with Tween-80, higher = longer survival): 95 % of control
T/C (endpoint: median survival time, dose: 5.0 mg/kg/injection, schedule: Q01DX001 (ip), vehicle: saline with Tween-80, higher = longer survival): 116 % of control
T/C (endpoint: median survival time, dose: 6.25 mg/kg/injection, schedule: Q01DX009 (ip), vehicle: saline with Tween-80, higher = longer survival): 96 % of control
T/C (endpoint: median survival time, dose: 7.0 mg/kg/injection, schedule: Q01DX001 (ip), vehicle: saline with Tween-80, higher = longer survival): 117 % of control
T/C (endpoint: median survival time, dose: 11.0 mg/kg/injection, schedule: Q04DX004 (ip), vehicle: saline with Tween-80, higher = longer survival): 112 % of control
T/C (endpoint: median survival time, dose: 12.5 mg/kg/injection, schedule: Q01DX009 (ip), vehicle: saline with Tween-80, higher = longer survival): 109 % of control
T/C (endpoint: median survival time, dose: 16.5 mg/kg/injection, schedule: Q04DX004 (ip), vehicle: saline with Tween-80, higher = longer survival): 71 % of control
T/C (endpoint: median survival time, dose: 23.0 mg/kg/injection, schedule: Q01DX001 (ip), vehicle: saline with Tween-80, higher = longer survival): 163 % of control
T/C (endpoint: median tumor weight (est.), dose: 7.3 mg/kg/injection, schedule: Q01DX001 (ip), vehicle: saline with Tween-80, higher = larger tumour): 97 % of control
T/C (endpoint: median tumor weight (est.), dose: 15.0 mg/kg/injection, schedule: Q01DX001 (ip), vehicle: saline with Tween-80, higher = larger tumour): 32 % of control and 40 % of control
T/C (endpoint: median tumor weight (est.), dose: 22.0 mg/kg/injection, schedule: Q01DX001 (ip), vehicle: saline with Tween-80, higher = larger tumour): 8 % of control

CN(C)/N=N/c1nc[nH]c1C(N)=O
T/C (endpoint: mean tumor weight, dose: 12.5 mg/kg/injection, schedule: Q01DX011 (ip), vehicle: saline, higher = larger tumour): 76 % of control
T/C (endpoint: mean tumor weight, dose: 25.0 mg/kg/injection, schedule: Q01DX011 (ip), vehicle: saline, higher = larger tumour): 108 % of control
T/C (endpoint: mean tumor weight, dose: 48.0 mg/kg/injection, schedule: Q01DX011 (ip), vehicle: carboxymethylcellulose (CMC), higher = larger tumour): 111 % of control
T/C (endpoint: mean tumor weight, dose: 50.0 mg/kg/injection, schedule: Q01DX011 (ip), vehicle: saline, higher = larger tumour): 80 % of control
T/C (endpoint: mean tumor weight, dose: 95.0 mg/kg/injection, schedule: Q01DX011 (ip), vehicle: carboxymethylcellulose (CMC), higher = larger tumour): 117 % of control
T/C (endpoint: mean tumor weight, dose: 100.0 mg/kg/injection, schedule: Q01DX010 (ip), vehicle: saline, higher = larger tumour): 44 % of control
T/C (endpoint: mean tumor weight, dose: 100.0 mg/kg/injection, schedule: Q01DX011 (ip), vehicle: saline, higher = larger tumour): 42 % of control
T/C (endpoint: mean tumor weight, dose: 143.0 mg/kg/injection, schedule: Q01DX011 (ip), vehicle: carboxymethylcellulose (CMC), higher = larger tumour): 78 % of control
T/C (endpoint: mean tumor weight, dose: 200.0 mg/kg/injection, schedule: Q01DX010 (ip), vehicle: saline, higher = larger tumour): 51 % of control
T/C (endpoint: median survival time, dose: 27.0 mg/kg/injection, schedule: Q01DX015 (ip), vehicle: carboxymethylcellulose (CMC), higher = longer survival): 94 % of control and 122 % of control
T/C (endpoint: median survival time, dose: 37.5 mg/kg/injection, schedule: Q01DX009 (ip), vehicle: Klucel (hydroxypropylcellulose) (HPC), higher = longer survival): 97 % of control and 116 % of control
T/C (endpoint: median survival time, dose: 37.5 mg/kg/injection, schedule: Q01DX009 (ip), vehicle: saline with Tween-80, higher = longer survival): 106 % of control and 118 % of control
T/C (endpoint: median survival time, dose: 40.0 mg/kg/injection, schedule: Q01DX015 (ip), vehicle: carboxymethylcellulose (CMC), higher = longer survival): 92 % of control
T/C (endpoint: median survival time, dose: 60.0 mg/kg/injection, schedule: Q01DX015 (ip), vehicle: carboxymethylcellulose (CMC), higher = longer survival): 102 % of control
T/C (endpoint: median survival time, dose: 75.0 mg/kg/injection, schedule: Q01DX009 (ip), vehicle: Klucel (hydroxypropylcellulose) (HPC), higher = longer survival): 110 % of control
T/C (endpoint: median survival time, dose: 75.0 mg/kg/injection, schedule: Q01DX009 (ip), vehicle: saline with Tween-80, higher = longer survival): 118 % of control
T/C (endpoint: median survival time, dose: 100.0 mg/kg/injection, schedule: Q01DX009 (ip), vehicle: saline with Tween-80, higher = longer survival): 118 % of control
T/C (endpoint: median survival time, dose: 150.0 mg/kg/injection, schedule: Q01DX009 (ip), vehicle: Klucel (hydroxypropylcellulose) (HPC), higher = longer survival): 122 % of control
T/C (endpoint: median survival time, dose: 150.0 mg/kg/injection, schedule: Q01DX009 (ip), vehicle: saline with Tween-80, higher = longer survival): 92 % of control
T/C (endpoint: median survival time, dose: 200.0 mg/kg/injection, schedule: Q01DX009 (ip), vehicle: saline with Tween-80, higher = longer survival): 113 % of control
T/C (endpoint: median survival time, dose: 300.0 mg/kg/injection, schedule: Q01DX009 (ip), vehicle: Klucel (hydroxypropylcellulose) (HPC), higher = longer survival): 95 % of control
T/C (endpoint: median survival time, dose: 450.0 mg/kg/injection, schedule: Q01DX001 (ip), vehicle: carboxymethylcellulose (CMC), higher = longer survival): 93 % of control
T/C (endpoint: median survival time, dose: 670.0 mg/kg/injection, schedule: Q01DX001 (ip), vehicle: carboxymethylcellulose (CMC), higher = longer survival): 96 % of control
T/C (endpoint: median tumor weight (est.), dose: 23.7 mg/kg/injection, schedule: Q01DX009 (ip), vehicle: carboxymethylcellulose (CMC), higher = larger tumour): 102 % of control
T/C (endpoint: median tumor weight (est.), dose: 24.0 mg/kg/injection, schedule: Q01DX009 (ip), vehicle: carboxymethylcellulose (CMC), higher = larger tumour): 74 % of control and 77 % of control
T/C (endpoint: median tumor weight (est.), dose: 37.5 mg/kg/injection, schedule: Q01DX009 (ip), vehicle: saline with Tween-80, higher = larger tumour): 90 % of control
T/C (endpoint: median tumor weight (est.), dose: 47.0 mg/kg/injection, schedule: Q01DX009 (ip), vehicle: carboxymethylcellulose (CMC), higher = larger tumour): 99 % of control
T/C (endpoint: median tumor weight (est.), dose: 47.5 mg/kg/injection, schedule: Q01DX009 (ip), vehicle: carboxymethylcellulose (CMC), higher = larger tumour): 50 % of control
T/C (endpoint: median tumor weight (est.), dose: 48.0 mg/kg/injection, schedule: Q01DX009 (ip), vehicle: carboxymethylcellulose (CMC), higher = larger tumour): 70 % of control
T/C (endpoint: median tumor weight (est.), dose: 75.0 mg/kg/injection, schedule: Q01DX009 (ip), vehicle: saline with Tween-80, higher = larger tumour): 73 % of control
T/C (endpoint: median tumor weight (est.), dose: 95.0 mg/kg/injection, schedule: Q01DX009 (ip), vehicle: carboxymethylcellulose (CMC), higher = larger tumour): 79 % of control and 82 % of control and 99 % of control
T/C (endpoint: median tumor weight (est.), dose: 150.0 mg/kg/injection, schedule: Q01DX009 (ip), vehicle: saline with Tween-80, higher = larger tumour): 70 % of control
T/C (endpoint: median tumor weight (est.), dose: 300.0 mg/kg/injection, schedule: Q01DX009 (ip), vehicle: saline with Tween-80, higher = larger tumour): 36 % of control
